According to PubChem BioAssay AID1963983 (Molecular Pharmacology Branch, DTP, NCI, 2024):

Test system: 186277-243-T-J2-PDC multi-cell spheroid viability
Test: Anticancer human tumor 186277-243-T-J2-PDC patient-derived colon adenocarcinoma cell line growth inhibition [PI3K]
Conditions: for IC50: curve of first compound; for viability, T/C: stronger effect = lower value
Procedure, shortened: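 High-throughput combination screen: PI3K inhibitors crossed with targeted small molecules on complex spheroids of tumor cells, HUVEC and MSCs at 37 degrees C, 5% CO2. Top concentration was at or near clinical Cmax (otherwise 10 microM), with half-log decrements.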

[1] = second compound 0.0316 µM, first compound 0.0316 µM
[2] = second compound 0.0316 µM, first compound 0.1 µM
[3] = second compound 0.1 µM, first compound 0.0316 µM
[4] = second compound 0.1 µM, first compound 0.1 µM
[5] = second compound 0.316 µM, first compound 0.0316 µM
[6] = second compound 0.316 µM, first compound 0.1 µM
[7] = second compound 1 µM, first compound 0.0316 µM
[8] = second compound 1 µM, first compound 0.1 µM
[9] = second compound 3.16 µM, first compound 0.0316 µM
[10] = second compound 3.16 µM, first compound 0.1 µM
[11] = second compound 10 µM, first compound 0.0316 µM
[12] = second compound 10 µM, first compound 0.1 µM
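Also: spheroids exposed to compounds for seven days before viability reading.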
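For viability, T/C in this document: 100% = DMSO vehicle control viability.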

`C=CC(=O)N1CCN(c2nc(=O)n(-c3c(C)ccnc3C(C)C)c3nc(-c4c(O)cccc4F)c(F)cc23)C(C)C1` (centres undefined) + Cc1nc(NC(=O)N2CCCC2C(N)=O)sc1-c1ccnc(C(C)(C)C(F)(F)F)c1 showed an IC50 (second compound 0.0316 µM) of over 10000 nM, an IC50 (second compound 0.1 µM) of over 10000 nM and an IC50 (second compound 0.316 µM) of over 10000 nM. It also gave an IC50 (second compound 1 µM) of over 10000 nM, an IC50 (second compound 3.16 µM) of 605 nM and an IC50 (second compound 10 µM) of under 31.6 nM. The viability, T/C [1] was 83.7%, the viability, T/C [2] was 108% and the viability, T/C (second compound 0.0316 µM, first compound 0.316 µM) was 105%. For the same molecule, the viability, T/C (second compound 0.0316 µM, first compound 1 µM) was 88.1%, the viability, T/C (second compound 0.0316 µM, first compound 3.16 µM) was 100% and the viability, T/C (second compound 0.0316 µM, first compound 10 µM) was 94.8%. The viability, T/C [3] was 102%, the viability, T/C [4] was 99.2% and the viability, T/C (second compound 0.1 µM, first compound 0.316 µM) was 106%. It also gave a viability, T/C (second compound 0.1 µM, first compound 1 µM) of 95.6%, a viability, T/C (second compound 0.1 µM, first compound 3.16 µM) of 92% and a viability, T/C (second compound 0.1 µM, first compound 10 µM) of 103%. It also gave a viability, T/C [5] of 108%, a viability, T/C [6] of 107% and a viability, T/C (second compound 0.316 µM, first compound 0.316 µM) of 96.6%. For the same molecule, the viability, T/C (second compound 0.316 µM, first compound 1 µM) was 104%, the viability, T/C (second compound 0.316 µM, first compound 3.16 µM) was 86.9% and the viability, T/C (second compound 0.316 µM, first compound 10 µM) was 85%. It also gave a viability, T/C [7] of 93.4%, a viability, T/C [8] of 102% and a viability, T/C (second compound 1 µM, first compound 0.316 µM) of 87.6%. The viability, T/C (second compound 1 µM, first compound 1 µM) was 94.5%, the viability, T/C (second compound 1 µM, first compound 3.16 µM) was 80% and the viability, T/C (second compound 1 µM, first compound 10 µM) was 57.5%. For the same molecule, the viability, T/C [9] was 61.6%, the viability, T/C [10] was 51.9% and the viability, T/C (second compound 3.16 µM, first compound 0.316 µM) was 46.5%. The viability, T/C (second compound 3.16 µM, first compound 1 µM) was 52.7%, the viability, T/C (second compound 3.16 µM, first compound 3.16 µM) was 41.1% and the viability, T/C (second compound 3.16 µM, first compound 10 µM) was 26.3%. The viability, T/C [11] was 11.1%, the viability, T/C [12] was 12.8% and the viability, T/C (second compound 10 µM, first compound 0.316 µM) was 14.5%. It also gave a viability, T/C (second compound 10 µM, first compound 1 µM) of 9.26%, a viability, T/C (second compound 10 µM, first compound 3.16 µM) of 10.8% and a viability, T/C (second compound 10 µM, first compound 10 µM) of 13.2%.
For `CC(C)n1nc(-c2ccc3oc(N)nc3c2)c2c(N)ncnc21` + CC(Nc1ncnc2nc[nH]c12)c1cc2cccc(Cl)c2c(=O)n1-c1ccccc1, the IC50 (second compound 0.0316 µM) was 63.4 nM, the IC50 (second compound 0.1 µM) was 59.2 nM and the IC50 (second compound 0.316 µM) was 61.7 nM. The IC50 (second compound 1 µM) was 56.1 nM, the IC50 (second compound 3.16 µM) was 47.8 nM and the IC50 (second compound 10 µM) was 47.2 nM. For the same molecule, the viability, T/C (second compound 0.0316 µM, first compound 0.000316 µM) was 86.4%, the viability, T/C (second compound 0.0316 µM, first compound 0.001 µM) was 96% and the viability, T/C (second compound 0.0316 µM, first compound 0.00316 µM) was 108%. It also gave a viability, T/C (second compound 0.0316 µM, first compound 0.01 µM) of 90.2%, a viability, T/C [1] of 81.5% and a viability, T/C [2] of 29.2%. It also gave a viability, T/C (second compound 0.1 µM, first compound 0.000316 µM) of 112%, a viability, T/C (second compound 0.1 µM, first compound 0.001 µM) of 101% and a viability, T/C (second compound 0.1 µM, first compound 0.00316 µM) of 96.7%. For the same molecule, the viability, T/C (second compound 0.1 µM, first compound 0.01 µM) was 97.1%, the viability, T/C [3] was 80.3% and the viability, T/C [4] was 25.3%. It also gave a viability, T/C (second compound 0.316 µM, first compound 0.000316 µM) of 105%, a viability, T/C (second compound 0.316 µM, first compound 0.001 µM) of 103% and a viability, T/C (second compound 0.316 µM, first compound 0.00316 µM) of 89.1%. The viability, T/C (second compound 0.316 µM, first compound 0.01 µM) was 103%, the viability, T/C [5] was 79.6% and the viability, T/C [6] was 28.6%. The viability, T/C (second compound 1 µM, first compound 0.000316 µM) was 96.7%, the viability, T/C (second compound 1 µM, first compound 0.001 µM) was 108% and the viability, T/C (second compound 1 µM, first compound 0.00316 µM) was 102%. The viability, T/C (second compound 1 µM, first compound 0.01 µM) was 96.3%, the viability, T/C [7] was 72.5% and the viability, T/C [8] was 27.4%. It also gave a viability, T/C (second compound 3.16 µM, first compound 0.000316 µM) of 95%, a viability, T/C (second compound 3.16 µM, first compound 0.001 µM) of 90.8% and a viability, T/C (second compound 3.16 µM, first compound 0.00316 µM) of 95.4%. For the same molecule, the viability, T/C (second compound 3.16 µM, first compound 0.01 µM) was 92.2%, the viability, T/C [9] was 64.9% and the viability, T/C [10] was 23.5%. It also gave a viability, T/C (second compound 10 µM, first compound 0.000316 µM) of 89.7%, a viability, T/C (second compound 10 µM, first compound 0.001 µM) of 94.5% and a viability, T/C (second compound 10 µM, first compound 0.00316 µM) of 78%. The viability, T/C (second compound 10 µM, first compound 0.01 µM) was 80.5%, the viability, T/C [11] was 69.7% and the viability, T/C [12] was 17.6%.
